The target in data set [1] is Beta-secretase 1 (Cricetulus griseus, UniProt G3IAK4). As to the kind of experiment: Inhibition of BACE-1 in CHO cells expressing wild-type APP assessed as reduction in amyloid beta-40 production after 6 hrs by sandwich ELISA. On the technique in general: An ELISA detects its analyte on a solid surface through an enzyme-linked reagent.
The target of another data set is Cathepsin D (Homo sapiens, UniProt P07339). As to the kind of experiment: Inhibition of cathepsin D in human liver using Lys-Lys-Pro-Ala-Glu-Phe-Phe-Ala-Leu-Lys as substrate by spectrofluorometric analysis. The settings on record: read-out: Ki(app).
For data set [2], the system named is Mus musculus. As to the kind of experiment: Toxicity in triple transgenic mouse model of Alzheimer's disease administered intranasally qd for 4 days. In kind it is organism-based. The note with it: in vivo, inhaled_or_intranasal, 96 h.
Data set [3] has as its target T1, Beta-secretase 1 (Homo sapiens, UniProt P56817). As to the kind of experiment: Inhibition of recombinant BACE-1 (unknown origin) expressed in Escherichia coli measured for 5 to 30 mins by spectrofluorometric analysis. The note with it: read-out: Ki(app).
A short description of data set [4]: Cytotoxicity against human SH-SY5Y cells expressing wild-type APP assessed as cell viability at 600 uM by trypan blue dye exclusion assay relative to control. The class given is cell-based. The note with it: read-out: Activity.
The subject of data set [5] is Mus musculus. As to the kind of experiment: In vivo inhibition of BACE-1 in triple transgenic mouse model of Alzheimer's disease assessed as reduction in brain soluble amyloid beta-40 level administered intranasally qd for 4 days by ELISA. In kind it is functional, organism-based.
The nature of data set [6]: Cytotoxicity against CHO cells expressing wild-type APP assessed as cell viability at 600 uM by neutral red uptake assay relative to control. The class given is cell-based, Cricetulus griseus. The settings on record: chinese hamster, read-out: Activity.
In data set [7] the target is T1, Beta-secretase 1. As to the kind of experiment: Inhibition of BACE-1 in human SH-SY5Y cells expressing wild-type APP assessed as reduction in amyloid beta-40 production after 16 hrs by sandwich ELISA.
For data set [8], the system named is Mus musculus. As to the kind of experiment: In vivo inhibition of BACE-1 in triple transgenic mouse model of Alzheimer's disease assessed as reduction in brain insoluble amyloid beta-40 level administered intranasally qd for 4 days by ELISA. The class given is functional, organism-based.

“And” between values parts separate entries of the source, which are not always exact repeats. Equal values may be shown once.

T1 sequence (P56817 whole entry): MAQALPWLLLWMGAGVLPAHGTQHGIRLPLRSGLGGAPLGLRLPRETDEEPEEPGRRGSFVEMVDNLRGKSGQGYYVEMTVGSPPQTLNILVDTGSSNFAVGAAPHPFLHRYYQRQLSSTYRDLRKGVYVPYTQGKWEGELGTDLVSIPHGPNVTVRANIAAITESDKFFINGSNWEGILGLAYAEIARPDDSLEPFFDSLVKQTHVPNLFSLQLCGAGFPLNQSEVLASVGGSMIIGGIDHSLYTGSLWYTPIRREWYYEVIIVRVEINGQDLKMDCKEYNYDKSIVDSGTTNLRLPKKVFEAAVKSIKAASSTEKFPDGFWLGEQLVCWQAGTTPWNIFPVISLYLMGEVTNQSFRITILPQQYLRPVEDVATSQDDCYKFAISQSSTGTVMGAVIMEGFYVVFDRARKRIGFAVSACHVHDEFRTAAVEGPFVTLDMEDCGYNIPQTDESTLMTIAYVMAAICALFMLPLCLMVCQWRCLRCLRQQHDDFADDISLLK
Cathepsin D, sequence (P07339 65-162 limits assumed): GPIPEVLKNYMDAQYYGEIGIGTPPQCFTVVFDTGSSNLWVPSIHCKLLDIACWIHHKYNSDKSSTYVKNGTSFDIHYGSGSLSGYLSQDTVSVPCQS
Cathepsin D, sequence (P07339 169-412 limits assumed): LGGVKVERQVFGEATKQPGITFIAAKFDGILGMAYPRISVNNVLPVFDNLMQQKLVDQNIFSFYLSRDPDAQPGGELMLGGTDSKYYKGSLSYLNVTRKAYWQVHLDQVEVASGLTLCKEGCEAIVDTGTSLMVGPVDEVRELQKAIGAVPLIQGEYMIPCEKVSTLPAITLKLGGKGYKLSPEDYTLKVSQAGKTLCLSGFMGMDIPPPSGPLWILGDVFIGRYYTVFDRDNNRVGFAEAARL
Beta-secretase 1 (Cricetulus griseus, UniProt G3IAK4), sequence (G3IAK4 whole entry): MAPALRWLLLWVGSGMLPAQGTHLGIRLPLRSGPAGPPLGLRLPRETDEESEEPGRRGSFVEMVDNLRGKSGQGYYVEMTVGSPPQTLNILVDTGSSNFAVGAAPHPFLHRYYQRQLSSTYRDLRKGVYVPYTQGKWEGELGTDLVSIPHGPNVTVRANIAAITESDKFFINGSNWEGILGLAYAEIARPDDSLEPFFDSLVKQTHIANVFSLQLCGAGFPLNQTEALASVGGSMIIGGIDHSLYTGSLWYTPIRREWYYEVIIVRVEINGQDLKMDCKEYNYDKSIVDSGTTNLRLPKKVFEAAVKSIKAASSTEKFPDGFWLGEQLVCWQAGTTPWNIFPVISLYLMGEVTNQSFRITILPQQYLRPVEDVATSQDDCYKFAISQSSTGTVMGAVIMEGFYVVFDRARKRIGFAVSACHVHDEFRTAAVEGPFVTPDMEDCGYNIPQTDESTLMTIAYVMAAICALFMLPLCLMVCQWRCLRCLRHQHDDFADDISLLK

In the case of `C=C1C(=O)C(C)=C(C)C1(C)C`, the figures for the 50% effective concentration (EC50) at Beta-secretase 1 [1] and at Beta-secretase 1 [7] were 73 µM and 217 µM, respectively. Further, the Ki at Cathepsin D is 31 µM and 30.8 µM; at Beta-secretase 1 [3], 416 µM. Besides, in the data set with Mus musculus [2], the Activity result was “Non-toxic”. Moreover, the viability at 600 µM in data set [4] and in data set [6] was over 90% each time. For the same compound, the inhibition entry with Mus musculus [5] and in the data set on Mus musculus [8] was “Dose-dependent effect” in each case.

One may read the EC50 as the concentration at which the effect is half-maximal.

Source of the values: ChEMBL document CHEMBL3297700, “Dose-dependent inhibition of BACE-1 by the monoterpenoid 2,3,4,4-tetramethyl-5-methylenecyclopent-2-enone in cellular and mouse models of Alzheimer's disease” (J Nat Prod, 2014).
